Results published in ChEMBL document CHEMBL1201862, “PubChem BioAssay data set” (2004).
Calls of active or inactive are those of the source.

Columns and labels:
Cytochrome P450 3A4 [1] = biological target: T1, Cytochrome P450 3A4 (Homo sapiens, UniProt P08684); conditions: Potency;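 also: confirmatory qHTS run detecting inhibitors and substrates of CYP3A4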
Cytochrome P450 3A4 [2] = biological target: T1, Cytochrome P450 3A4; conditions: read-out: Potency
HEK293 [3] = assay: NOD1 signaling inhibitors, primary screen, cell-based, luminescence, uHTS (AID 1578); type: functional; conditions: Homo sapiens
HEK293 [4] = assay: cells; type: functional, cell-based; conditions: Homo sapiens
[5] = biological target: Serine/threonine-protein phosphatase PP1-alpha catalytic subunit (Homo sapiens, UniProt P62136); assay: PP1 phosphatase inhibitors, dose response, biochemical, fluorescence (AID 2403);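 also: phosphatase turnover of OMFP into fluorescent 3-O-methylfluorescein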
HEK293 [6] = assay: cells; type: functional, cell-based; conditions: Homo sapiens; remark: listed apart in the source
HEK293 [7] = assay: NOD2 signaling inhibitors in MDP-stimulated cells, cell-based, uHTS, luminescence (AID 2001); type: functional; conditions: Homo sapiens
[8] = biological target: Serine/threonine-protein phosphatase (Homo sapiens, UniProt Q9BPW0); assay: Counterscreen for inhibitors of PP1: fluorescence-based biochemical high throughput dose response assay to identify inhibitors of Protein Phosphatase 5 (PP5). [Related pubchem assays: 2034 (Summary (PP5 inhibitors)), 1987 (PP5 inhibitors in singlate), 2235 (PP1 inhibitors in singlate)]
Chain of Serine/threonine-protein phosphatase (Homo sapiens, UniProt Q9BPW0) (Q9BPW0 whole entry): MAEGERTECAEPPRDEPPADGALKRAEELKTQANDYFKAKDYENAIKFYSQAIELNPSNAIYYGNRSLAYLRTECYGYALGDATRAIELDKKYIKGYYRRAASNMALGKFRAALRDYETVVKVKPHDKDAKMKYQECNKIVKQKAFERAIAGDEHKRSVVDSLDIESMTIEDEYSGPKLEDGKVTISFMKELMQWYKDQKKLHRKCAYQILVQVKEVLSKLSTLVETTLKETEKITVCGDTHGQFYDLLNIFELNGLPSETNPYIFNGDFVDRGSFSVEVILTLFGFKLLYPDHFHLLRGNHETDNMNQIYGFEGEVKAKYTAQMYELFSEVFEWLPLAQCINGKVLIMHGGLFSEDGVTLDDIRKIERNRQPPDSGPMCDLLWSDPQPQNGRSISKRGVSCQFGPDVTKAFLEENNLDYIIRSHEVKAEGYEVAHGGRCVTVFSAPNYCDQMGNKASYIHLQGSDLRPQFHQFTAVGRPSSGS

[9] = biological target: Photoreceptor-specific nuclear receptor (Homo sapiens, UniProt Q9Y5X4); type: functional;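 also: potency for compounds that break the NR2E3 corepressor complex and count as activators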
[10] = biological target: Peroxisome proliferator-activated receptor gamma/Nuclear receptor corepressor 2 (Homo sapiens, UniProt P37231+Q9Y618); type: functional
[11] = biological target: Mothers against decapentaplegic homolog 3 (Homo sapiens, UniProt P84022); assay: Smad3 binding inhibitors, lysate ELISA, dose response, cell lysate, secondary confirmation, chemiluminescent ELISA, HEK293 lysate (AID 1058); type: functional
Chain of Mothers against decapentaplegic homolog 3 (P84022 whole entry): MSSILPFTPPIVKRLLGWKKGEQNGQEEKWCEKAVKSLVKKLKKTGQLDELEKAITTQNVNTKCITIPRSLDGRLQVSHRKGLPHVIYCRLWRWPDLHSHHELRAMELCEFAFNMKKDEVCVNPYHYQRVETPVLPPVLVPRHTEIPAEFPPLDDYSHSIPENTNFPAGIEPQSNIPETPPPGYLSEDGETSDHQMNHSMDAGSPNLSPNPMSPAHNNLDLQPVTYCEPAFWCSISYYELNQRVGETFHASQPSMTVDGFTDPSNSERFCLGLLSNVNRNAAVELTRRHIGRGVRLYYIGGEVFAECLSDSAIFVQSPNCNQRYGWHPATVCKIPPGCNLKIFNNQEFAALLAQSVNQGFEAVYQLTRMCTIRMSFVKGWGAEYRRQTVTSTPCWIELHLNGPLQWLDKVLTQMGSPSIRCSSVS

Vero = assay: Vero E6 cell cytotoxicity, SAR follow-up, cytotoxicity control for West Nile virus antiviral project, synthesized analogs (AID 2244); type: functional; conditions: Chlorocebus sabaeus
[12] = biological target: Voltage-gated N-type calcium channel alpha-1B subunit/Amyloid beta A4 precursor protein-binding family A member 1 (Homo sapiens, UniProt Q00975+Q02410); assay: disruptors of Mint-PDZ/N-type channel peptide interaction – biochemical, HTRF, set 2, SAR follow-up (AID 434980); type: functional
Chain of Voltage-gated N-type calcium channel alpha-1B subunit/Amyloid beta A4 precursor protein-binding family A member 1 (Q00975 whole entry): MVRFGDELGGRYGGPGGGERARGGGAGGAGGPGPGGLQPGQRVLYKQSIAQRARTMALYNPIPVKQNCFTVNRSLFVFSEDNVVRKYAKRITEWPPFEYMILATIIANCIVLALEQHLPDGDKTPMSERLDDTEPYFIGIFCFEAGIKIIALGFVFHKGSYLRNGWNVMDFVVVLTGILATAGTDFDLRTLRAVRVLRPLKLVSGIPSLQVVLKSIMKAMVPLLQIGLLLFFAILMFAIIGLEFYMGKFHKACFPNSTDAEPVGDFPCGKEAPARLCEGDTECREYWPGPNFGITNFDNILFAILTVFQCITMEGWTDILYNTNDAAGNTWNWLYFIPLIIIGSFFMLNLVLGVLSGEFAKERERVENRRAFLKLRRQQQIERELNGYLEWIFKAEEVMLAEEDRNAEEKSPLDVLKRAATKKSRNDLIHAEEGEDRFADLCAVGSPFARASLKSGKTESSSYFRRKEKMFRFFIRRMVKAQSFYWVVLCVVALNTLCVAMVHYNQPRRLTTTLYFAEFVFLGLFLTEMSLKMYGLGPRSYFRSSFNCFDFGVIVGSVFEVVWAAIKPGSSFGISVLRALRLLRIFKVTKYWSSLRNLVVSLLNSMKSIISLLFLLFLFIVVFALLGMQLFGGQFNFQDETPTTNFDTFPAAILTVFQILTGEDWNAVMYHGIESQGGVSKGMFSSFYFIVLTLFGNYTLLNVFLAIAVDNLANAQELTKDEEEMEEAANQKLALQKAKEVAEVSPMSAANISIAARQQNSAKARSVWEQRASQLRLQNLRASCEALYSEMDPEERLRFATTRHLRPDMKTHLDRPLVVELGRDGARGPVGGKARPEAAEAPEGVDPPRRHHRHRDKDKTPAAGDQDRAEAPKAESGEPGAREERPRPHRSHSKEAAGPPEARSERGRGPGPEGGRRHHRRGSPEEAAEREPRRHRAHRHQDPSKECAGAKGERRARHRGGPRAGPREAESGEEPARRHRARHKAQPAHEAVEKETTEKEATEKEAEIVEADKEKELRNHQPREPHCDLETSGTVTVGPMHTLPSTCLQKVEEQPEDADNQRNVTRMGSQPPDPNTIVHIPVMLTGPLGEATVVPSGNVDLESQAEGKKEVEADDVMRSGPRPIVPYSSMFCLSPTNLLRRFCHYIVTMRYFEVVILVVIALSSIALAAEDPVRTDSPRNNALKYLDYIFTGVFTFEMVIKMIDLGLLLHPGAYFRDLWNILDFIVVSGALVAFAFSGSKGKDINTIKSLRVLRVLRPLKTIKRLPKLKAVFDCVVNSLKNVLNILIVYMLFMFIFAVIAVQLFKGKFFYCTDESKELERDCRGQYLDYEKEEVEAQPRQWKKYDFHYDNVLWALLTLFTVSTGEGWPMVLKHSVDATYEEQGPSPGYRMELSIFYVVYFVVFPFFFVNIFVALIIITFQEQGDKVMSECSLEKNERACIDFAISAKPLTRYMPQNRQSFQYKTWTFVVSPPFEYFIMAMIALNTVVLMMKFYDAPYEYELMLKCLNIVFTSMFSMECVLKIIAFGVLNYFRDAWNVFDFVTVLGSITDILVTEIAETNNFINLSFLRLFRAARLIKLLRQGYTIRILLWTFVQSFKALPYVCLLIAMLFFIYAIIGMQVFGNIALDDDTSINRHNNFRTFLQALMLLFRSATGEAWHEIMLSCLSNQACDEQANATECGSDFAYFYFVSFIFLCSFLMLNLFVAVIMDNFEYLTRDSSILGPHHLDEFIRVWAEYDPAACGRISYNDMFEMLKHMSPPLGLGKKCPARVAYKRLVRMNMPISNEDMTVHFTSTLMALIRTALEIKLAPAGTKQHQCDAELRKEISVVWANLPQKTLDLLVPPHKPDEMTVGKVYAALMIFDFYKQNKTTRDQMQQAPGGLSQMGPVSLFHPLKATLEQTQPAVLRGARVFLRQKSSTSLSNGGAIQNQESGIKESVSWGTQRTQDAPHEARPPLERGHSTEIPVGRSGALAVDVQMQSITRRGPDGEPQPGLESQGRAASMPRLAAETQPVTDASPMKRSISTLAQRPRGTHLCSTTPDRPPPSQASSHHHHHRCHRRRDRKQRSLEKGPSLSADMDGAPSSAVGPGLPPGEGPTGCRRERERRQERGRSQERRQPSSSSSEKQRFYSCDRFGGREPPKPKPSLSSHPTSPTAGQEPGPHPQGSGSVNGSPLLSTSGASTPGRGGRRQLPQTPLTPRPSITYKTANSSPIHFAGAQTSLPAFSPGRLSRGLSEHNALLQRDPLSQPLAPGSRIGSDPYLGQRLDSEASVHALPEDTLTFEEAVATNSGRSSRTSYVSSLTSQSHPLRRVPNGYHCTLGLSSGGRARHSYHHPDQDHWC
Chain of Voltage-gated N-type calcium channel alpha-1B subunit/Amyloid beta A4 precursor protein-binding family A member 1 (Q02410 whole entry): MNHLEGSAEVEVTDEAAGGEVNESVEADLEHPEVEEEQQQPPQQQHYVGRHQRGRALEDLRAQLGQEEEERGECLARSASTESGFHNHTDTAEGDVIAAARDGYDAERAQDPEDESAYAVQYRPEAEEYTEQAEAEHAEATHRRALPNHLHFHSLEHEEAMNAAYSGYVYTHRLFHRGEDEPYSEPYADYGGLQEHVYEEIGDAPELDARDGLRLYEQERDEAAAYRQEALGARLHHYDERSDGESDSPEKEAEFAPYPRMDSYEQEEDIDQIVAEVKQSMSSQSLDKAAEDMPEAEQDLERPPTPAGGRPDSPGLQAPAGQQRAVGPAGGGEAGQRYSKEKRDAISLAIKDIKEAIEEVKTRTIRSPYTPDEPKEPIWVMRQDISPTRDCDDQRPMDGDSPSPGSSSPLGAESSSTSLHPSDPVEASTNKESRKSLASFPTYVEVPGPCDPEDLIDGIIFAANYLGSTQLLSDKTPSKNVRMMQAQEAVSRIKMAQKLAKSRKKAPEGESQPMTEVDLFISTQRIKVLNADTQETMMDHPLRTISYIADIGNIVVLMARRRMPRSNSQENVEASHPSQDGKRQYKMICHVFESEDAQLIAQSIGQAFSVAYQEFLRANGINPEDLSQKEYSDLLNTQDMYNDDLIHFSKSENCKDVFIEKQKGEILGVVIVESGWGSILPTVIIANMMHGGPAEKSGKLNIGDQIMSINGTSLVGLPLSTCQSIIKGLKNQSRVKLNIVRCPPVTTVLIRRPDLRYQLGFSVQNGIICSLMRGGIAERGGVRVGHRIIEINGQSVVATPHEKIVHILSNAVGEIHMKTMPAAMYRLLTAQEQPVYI

[13] = biological target: Melanin-concentrating hormone receptor 1 (Homo sapiens, UniProt Q99705); assay: Late-stage fluorescence-based counterscreen for antagonists of the G-protein coupled receptor 7 (GPR7): cell-based dose response assay to identify antagonists of the melanin-concentrating hormone receptor 1 (MCHR1). [Related pubchem assays (depositor defined):AID1861, AID1880, AID1952, AID2148, AID2251, AID2257, AID485339]; type: functional;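 also: stimulated with 30 nM MCH peptide agonist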
[14] = NIH-3T3 fibroblast cytotoxicity, dose response, cytotoxicity control, cell-based, fluorescence, Alamar Blue, secondary assay (AID 2327); type: functional;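 also: NIH-3T3 mouse fibroblasts cultured with fluconazole at 8 µg/mL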
[15] = luciferase reporter signal reduction – luminescence, H4-C neuroglioblastoma cells, dose response (AID 2458); type: functional, cell-based;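 also: H4 neuroglioblastoma cells stably carrying a luciferase reporter gene fusion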
[16] = test system: Streptococcus sp. 'group A'; assay: growth inhibition of control SK(-) GAS strain, dose response, counter-screen for streptokinase expression inhibitor project, luminescence, kanamycin, BacTiterGlo, confirmation (AID 1900); type: functional, organism-based
cells = type: functional, cell-based
[17] = Luminescence Cell-Based Dose Response HTS to Identify Inhibitors of 5'UTR Stem-Loop Driven Prion Protein mRNA Translation in H4 Neuroglioblastoma Cells. [Related pubchem assays: 1827 (Project Summary), 1813 (Primary HTS)]; type: functional
[18] = inhibitors of SNCA 5'UTR-driven reporter translation, confirmation, H4 neuroglioma cells, luminescence (AID 1988); type: functional, cell-based
[19] = C. albicans growth with fluconazole, confirmation, fluorescence, retest (AID 2467); type: functional, cell-based
[20] = biological target: Nucleotide-binding oligomerization domain-containing protein 2 (Homo sapiens, UniProt Q9HC29); assay: NOD2 signaling inhibitors, cell-based, luminescence, uHTS, HEK293 (AID 1566); type: functional
[21] = inhibitors of intracellular T. cruzi replication, confirmation, NIH3T3 host cells, beta-gal luminescence (AID 2044); type: functional, cell-based;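 also: intracellular parasites grown in NIH/3T3 mouse fibroblasts as host cells; luminescent beta-galactosidase reporter signal from transgenic T. cruzi replicating inside host cells; inhibitors lower the luminescence signal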
HEK293 [22] = assay: cells; type: functional, cell-based; conditions: Homo sapiens; remark: listed apart in the source
[23] = biological target: T2, Serine/threonine-protein phosphatase (Candida dubliniensis (strain CD36 / CBS 7987 / NCPF 3949 / NRRLY-17841) (Yeast), UniProt B9W6M3); assay: calcineurin pathway inhibitors in yeast reporter, dose response, S. cerevisiae, CDRE-lacZ, luminescence, secondary (AID 2388); type: functional, cell-based;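 also: yeast reporter cells carrying a calcineurin-responsive lacZ construct stimulated with calcium chloride; luminescent beta-galactosidase reporter signal in whole cells rather than isolated phosphatase activity; potency for inhibition where a drop in reporter signal means calcineurin blockade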
T2 sequence (B9W6M3 whole entry): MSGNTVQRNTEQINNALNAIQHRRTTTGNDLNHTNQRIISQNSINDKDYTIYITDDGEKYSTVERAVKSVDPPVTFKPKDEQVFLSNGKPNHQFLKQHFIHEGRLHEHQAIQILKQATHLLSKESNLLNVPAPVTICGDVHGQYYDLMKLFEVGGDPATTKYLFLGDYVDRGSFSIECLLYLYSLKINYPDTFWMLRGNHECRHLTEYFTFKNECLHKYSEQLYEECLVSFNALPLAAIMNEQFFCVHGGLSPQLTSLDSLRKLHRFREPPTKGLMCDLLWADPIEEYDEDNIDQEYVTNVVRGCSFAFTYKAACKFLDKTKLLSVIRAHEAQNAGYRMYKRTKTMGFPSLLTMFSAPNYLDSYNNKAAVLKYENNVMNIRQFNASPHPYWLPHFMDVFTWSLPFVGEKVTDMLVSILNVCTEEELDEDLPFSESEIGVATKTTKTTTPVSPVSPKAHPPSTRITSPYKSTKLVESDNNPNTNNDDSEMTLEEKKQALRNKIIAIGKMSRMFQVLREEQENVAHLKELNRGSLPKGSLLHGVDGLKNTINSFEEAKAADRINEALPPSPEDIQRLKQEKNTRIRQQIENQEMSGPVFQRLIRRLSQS

[24] = cytotoxicity toward NIH3T3 fibroblasts, dose response, counter-screen, cell-based, ATP luminescence, mouse fibroblasts (AID 2010); type: functional;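 also: cells exposed to compound for about 90 hours before reading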
Streptococcus = assay: Group A Streptococcus viability loss, dose response, counter-screen for streptokinase expression inhibitor project, luminescence, BacTiterGlo (AID 1915); type: functional, organism-based;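 also: potency for reduction of bacterial viability or growth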
[25] = inhibitors of SNCA 5'UTR-driven translation, confirmation, luminescence, H4 neuroglioblastoma cells, dose confirmation (AID 2454); type: functional, cell-based;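 also: H4 neuroglioblastoma cells carrying an alpha-synuclein 5'UTR luciferase reporter; potency for inhibition of the luciferase signal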
INS1 = assay: beta cell apoptosis inhibitors, cytokine rescue, dose response, luminescence, retest (AID 449756); type: functional, cell-based; conditions: Rattus norvegicus;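 also: cell death triggered by IL-1 beta plus TNF-alpha plus IFN-gamma mixture; protective hits raise ATP signal compared with cytokine alone wells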
[26] = biological target: ATP-dependent molecular chaperone HSP82 (Candida albicans (strain WO-1) (Yeast), UniProt C4YTQ8); assay: loss of DOC-induced GRE-beta-galactosidase reporter signal, dose response, Hsp90 inhibitor project, S. cerevisiae, luminescence (AID 2400); type: functional, cell-based;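 also: beta-galactosidase luminescence from glucocorticoid response element reporter as proxy for Hsp90 function; inhibitor potency where signal loss means Hsp90 inhibition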
[27] = biological target: C-C chemokine receptor type 6 (Homo sapiens, UniProt P51684); assay: CCR6 receptor antagonists, dose response, cell-based, luminescent beta-arrestin readout (AID 504728); type: functional
Chain of C-C chemokine receptor type 6 (P51684 whole entry): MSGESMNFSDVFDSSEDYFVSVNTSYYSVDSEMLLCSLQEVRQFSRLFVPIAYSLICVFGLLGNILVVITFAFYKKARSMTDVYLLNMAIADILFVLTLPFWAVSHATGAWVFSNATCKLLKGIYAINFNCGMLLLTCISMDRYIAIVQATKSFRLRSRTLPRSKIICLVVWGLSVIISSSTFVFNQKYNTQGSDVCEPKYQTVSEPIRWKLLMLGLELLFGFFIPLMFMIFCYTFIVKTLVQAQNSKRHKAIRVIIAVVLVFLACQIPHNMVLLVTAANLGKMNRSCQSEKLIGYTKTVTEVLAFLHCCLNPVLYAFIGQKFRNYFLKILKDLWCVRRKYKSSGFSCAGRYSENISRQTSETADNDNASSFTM

Beta-galactosidase = Beta-galactosidase (Escherichia coli, UniProt Q8VNN2); assay: beta-galactosidase enzyme inhibitors and activators, dose response, artefact control for CCR6 antagonist project, biochemical, E. coli enzyme, set 3 (AID 504712); type: functional

T1 sequence (P08684 whole entry): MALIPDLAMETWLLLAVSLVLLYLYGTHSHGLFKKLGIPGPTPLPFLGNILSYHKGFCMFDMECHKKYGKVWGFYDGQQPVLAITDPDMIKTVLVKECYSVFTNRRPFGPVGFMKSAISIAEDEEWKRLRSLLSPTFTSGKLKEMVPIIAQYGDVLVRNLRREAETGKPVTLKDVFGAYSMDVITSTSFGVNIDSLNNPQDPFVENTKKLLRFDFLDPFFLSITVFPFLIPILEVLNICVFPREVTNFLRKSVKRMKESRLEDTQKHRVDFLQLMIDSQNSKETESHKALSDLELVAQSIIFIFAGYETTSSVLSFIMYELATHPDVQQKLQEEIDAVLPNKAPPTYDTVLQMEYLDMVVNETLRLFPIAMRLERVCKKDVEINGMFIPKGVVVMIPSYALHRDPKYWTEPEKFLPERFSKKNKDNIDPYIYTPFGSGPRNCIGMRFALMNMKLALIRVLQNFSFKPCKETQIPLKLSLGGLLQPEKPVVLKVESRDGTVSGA

With COC(=O)C1=C(C)N(Cc2ccccc2)C2=C(C(C)=O)C[C@@](O)(C(=O)OC)C(=O)N2C1c1ccccc1 (stereo partly specified) the AC50 (Cytochrome P450 3A4 [1]) was 3.16 µM (inconclusive) and the AC50 (Cytochrome P450 3A4 [2]) was 3.16 µM (inconclusive).
With CCOC(=O)c1sc(N2C(=O)C(O)=C(C(=O)c3ccco3)C2c2cccc([N+](=O)[O-])c2)nc1C (stereo unspecified) the EC50 (HEK293 [3]) was > 20 µM (inactive), the IC50 (HEK293 [4]) was > 20 µM (inactive) and the IC50 [5] was 11.8 µM (not active). The IC50 (HEK293 [6]) was > 20 µM (inactive), the IC50 (HEK293 [7]) was > 20 µM (inactive) and the IC50 [8] was > 67 µM (not active).
With COc1ccc(-n2c(=S)[nH]c3c(oc4ccccc43)c2=O)cc1 the IC50 [9] was 2.32 µM (active) and the IC50 [10] was 4.93 µM (active).
In the case of COc1ccc(C(c2cc3c(cc2O)OCO3)N2CCCCC2)cc1 (stereo unspecified), the IC50 [11] is reported as < 2.5 µM (not active).
For O=C(Nc1nc(-c2ccc(Cl)cc2)cs1)c1ccccc1F, the CC50 (Vero) was > 40 µM (active).
For O=C(NCCc1ccc(Cl)cc1)c1cc(-c2ccco2)nc2ccccc12, the IC50 [12] was 31.1 µM (active).
With COc1ccc(Oc2c(Cl)cnn(-c3cccc4ccccc34)c2=O)cc1 the IC50 [13] was 8.4 µM (active).
For Oc1c(Br)cc(Br)cc1/C=N/Nc1ccc(Cl)nn1, the EC50 [14] was 45.2 µM (active), the EC50 [15] was 0.931 µM (active) and the EC50 (HEK293 [3]) was > 20 µM (inactive). For the same molecule, the EC50 [16] was 0.249 µM (active), the IC50 (HEK293 [4]) was > 20 µM (inactive) and the EC50 (cells) was 0.502 µM (active). The EC50 [17] was 0.287 µM (active), the EC50 [18] was < 0.1 µM (active) and the EC50 [19] was < 0.03 µM (active). For the same molecule, the IC50 (HEK293 [6]) was > 20 µM (inactive), the EC50 [20] was > 20 µM (inactive) and the IC50 (HEK293 [7]) was > 20 µM (inactive). For the same molecule, the EC50 [21] was 0.495 µM (active), the IC50 (HEK293 [22]) was > 20 µM (inactive) and the EC50 [23] was > 180 µM (inactive). The EC50 [24] was > 30 µM (not active), the EC50 (Streptococcus) was 0.899 µM (active) and the EC50 [25] was > 12 µM (inconclusive). For the same molecule, the AC50 (INS1) was 0.22 µM (active) and the EC50 [26] was 24.3 µM (active).
With C(=C\c1sc(Nc2ccccc2)n[n+]1-c1ccccc1)/c1ccccc1 the IC50 [27] was 48.8 µM (inactive) and the IC50 (Beta-galactosidase) was > 66.6 µM (inactive).
